Format in all cases: functional
The subject of experiment [1] is Escherichia coli. Kind of experiment: Antimicrobial activity against Escherichia coli qnrA1 producing urinary specimen isolate 13.52 by agar dilution method. The following applies: Urine. Background: In agar dilution, organisms are placed on agar that contains the substance at set levels.
The test system of experiment [2] is Escherichia coli. Kind of experiment: Antimicrobial activity against streptomycin-resistant Escherichia coli J53 transconjugant with qnrA1 producing urinary specimen isolate 13.52 by agar dilution method.
For experiment [3], the system named is Escherichia coli. Kind of experiment: Antimicrobial activity against streptomycin-resistant Escherichia coli J53 by agar dilution method.

Converted amounts (≈) assume the structure as drawn. Some results are limits rather than exact numbers.

With `CC(O)[C@H]1C(=O)N2C(C(=O)O)=C(SCCNC=N)C[C@H]12` (single isomer, unassigned) [IMIPENEM ANHYDROUS], the minimum inhibitory concentration (MIC) in the experiment with Escherichia coli [1] was at most 0.025 µg/mL; in the experiment with Escherichia coli [2] (J53, Urine), at most 0.025 µg/mL; in the experiment with Escherichia coli [3], at most 0.025 µg/mL.

Consider `CO/N=C(\C(=O)N[C@@H]1C(=O)N2C(C(=O)O)=C(CSc3nc(=O)c(O)nn3C)CS[C@H]12)c1csc(N)n1` (stereo in doubt) [CEFTRIAXONE], for which the minimal inhibitory concentration (MIC) in the experiment with Escherichia coli [1] came out at 8 µg/mL (≈ 14.4 µM); in the experiment with Escherichia coli [2] (J53, Urine) it was 8 µg/mL (≈ 14.4 µM); against Escherichia coli [3], 0.047 µg/mL (≈ 0.0847 µM).

In the case of `CN[C@@H]1[C@H](O[C@H]2[C@H](O[C@H]3[C@H](O)[C@@H](O)[C@H](N=C(N)N)[C@@H](O)[C@@H]3N=C(N)N)O[C@@H](C)[C@]2(O)C=O)O[C@@H](CO)[C@H](O)[C@H]1O` (stereo in doubt) [STREPTOMYCIN], the MIC is 192 µg/mL (≈ 330 µM) with Escherichia coli [1]; over 1020 µg/mL in the experiment on Escherichia coli [2] (J53, Urine); over 1020 µg/mL with Escherichia coli [3].

For the compound `NCC[C@H](O)C(=O)N[C@@H]1C[C@H](N)[C@@H](O[C@H]2O[C@H](CN)[C@@H](O)[C@H](O)[C@H]2O)[C@H](O)[C@H]1O[C@H]1O[C@H](CO)[C@@H](O)[C@H](N)[C@H]1O` [AMIKACIN], the MIC in the experiment on Escherichia coli [1] is 4 µg/mL (≈ 6.83 µM); in the experiment with Escherichia coli [2] (J53, Urine) it was 2 µg/mL (≈ 3.42 µM); in the experiment on Escherichia coli [3], 2 µg/mL (≈ 3.42 µM).

`CC1(C)S[C@@H]2[C@H](NC(=O)[C@H](N)c3ccccc3)C(=O)N2[C@H]1C(=O)O` [AMPICILLIN]: the minimum inhibitory concentration (MIC) against Escherichia coli [1] is over 256 µg/mL; against Escherichia coli [2] (J53, Urine) it was over 256 µg/mL; against Escherichia coli [3] it was 8 µg/mL (≈ 22.9 µM).

Regarding `CO/N=C(\C(=O)N[C@@H]1C(=O)N2C(C(=O)[O-])=C(C[N+]3(C)CCCC3)CS[C@H]12)c1csc(N)n1` [CEFEPIME], the MIC was found to be 0.5 µg/mL (≈ 1.04 µM) in the experiment on Escherichia coli [1]; 0.5 µg/mL (≈ 1.04 µM) in the experiment on Escherichia coli [2] (J53, Urine); 0.06 µg/mL (≈ 0.125 µM) in the experiment on Escherichia coli [3].

In the case of `CO[C@@]1(NC(=O)Cc2cccs2)C(=O)N2C(C(=O)O)=C(COC(N)=O)CS[C@@H]21` [CEFOXITIN], the minimum inhibitory concentration (MIC) against Escherichia coli [1] was 32 µg/mL (≈ 74.9 µM); in the experiment with Escherichia coli [2] (J53, Urine) it was 256 µg/mL (≈ 599 µM); in the experiment on Escherichia coli [3] it was 8 µg/mL (≈ 18.7 µM).

Take `CC(C)(O/N=C(\C(=O)N[C@@H]1C(=O)N2C(C(=O)[O-])=C(C[n+]3ccccc3)CS[C@H]12)c1csc(N)n1)C(=O)O` [CEFTAZIDIME]: the MIC against Escherichia coli [1] came out at 64 µg/mL (≈ 117 µM); in the experiment with Escherichia coli [2] (J53, Urine) it was 128 µg/mL (≈ 234 µM); with Escherichia coli [3], 0.25 µg/mL (≈ 0.457 µM).

`O=C(N[C@H](CO)[C@H](O)c1ccc([N+](=O)[O-])cc1)C(Cl)Cl` [CHLORAMPHENICOL]: the minimal inhibitory concentration (MIC) is over 256 µg/mL in the experiment on Escherichia coli [1]; 48 µg/mL (≈ 149 µM) in the experiment with Escherichia coli [2] (J53, Urine); 8 µg/mL (≈ 24.8 µM) against Escherichia coli [3].

With `COc1c(N2CCNC(C)C2)c(F)cc2c(=O)c(C(=O)O)cn(C3CC3)c12` (stereo not given) [GATIFLOXACIN], the MIC against Escherichia coli [1] is 8 µg/mL (≈ 21.3 µM); in the experiment on Escherichia coli [2] (J53, Urine), 1 µg/mL (≈ 2.66 µM); with Escherichia coli [3], 0.012 µg/mL (≈ 0.032 µM).

`NC[C@H]1O[C@H](O[C@H]2[C@H](O)[C@@H](O[C@H]3O[C@H](CO)[C@@H](O)[C@H](N)[C@H]3O)[C@H](N)C[C@@H]2N)[C@H](O)[C@@H](O)[C@@H]1O` [KANAMYCIN]: the MIC in the experiment with Escherichia coli [1] is 32 µg/mL (≈ 66 µM); against Escherichia coli [2] (J53, Urine), 128 µg/mL (≈ 264 µM); in the experiment with Escherichia coli [3], 8 µg/mL (≈ 16.5 µM).

Turning to `C[C@H]1COc2c(N3CCN(C)CC3)c(F)cc3c(=O)c(C(=O)O)cn1c23.C[C@H]1COc2c(N3CCN(C)CC3)c(F)cc3c(=O)c(C(=O)O)cn1c23.O` [LEVOFLOXACIN], the MIC against Escherichia coli [1] amounted to 8 µg/mL; in the experiment on Escherichia coli [2] (J53, Urine), 1.5 µg/mL; in the experiment on Escherichia coli [3], 0.064 µg/mL.

Consider `C[C@@H](O)[C@H]1C(=O)N2C(C(=O)O)=C(S[C@@H]3CN[C@H](C(=O)N(C)C)C3)[C@H](C)[C@H]12` [MEROPENEM], for which the minimal inhibitory concentration (MIC) in the experiment on Escherichia coli [1] is at most 0.025 µg/mL; with Escherichia coli [2] (J53, Urine) it was at most 0.025 µg/mL; in the experiment with Escherichia coli [3] it was at most 0.025 µg/mL.

Take `CCn1cc(C(=O)O)c(=O)c2ccc(C)nc21` [NALIDIXIC ACID]: the minimum inhibitory concentration (MIC) with Escherichia coli [1] turned out to be 256 µg/mL (≈ 1100 µM); against Escherichia coli [2] (J53, Urine), 128 µg/mL (≈ 551 µM); in the experiment on Escherichia coli [3], 4 µg/mL (≈ 17.2 µM).

As for GENTAMICIN, the values for the MIC against Escherichia coli [1], with Escherichia coli [2] (Urine) and against Escherichia coli [3] were 2 µg/mL, 2 µg/mL and 0.125 µg/mL, respectively.

A word on the MIC: it is the lowest concentration found to suppress growth. A higher MIC goes with weaker potency.
